Reference: patent US20210188843A1, “QUINOLINE COMPOUNDS AND THEIR PREPARATION AND USE AS ANTIMALARIAL AGENTS” (The United States of America,as represented by the …, priority 2018, published 2021)
≈ marks a conversion by molar mass, not a printed value. Read-outs that look alike come from different tables or passages of the source.

Assays:
[1] = test system: Asexual parasites of P. falciparum strain 3D7; assay: In vitro drug activity on asexual parasites (SYBR Green assay); type: cell-based; details: Plasmodium falciparum, read-out: Asexual EC50
How it was run: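 3D7 asexual cultures at 0.5% parasitemia and 2% hematocrit were exposed to drug (DMSO <0.5%) for 72 h under standard culture conditions, in duplicate with no-drug and RBC-only controls. After freeze-thaw lysis, SYBR Green I lysis buffer was added for 30 min at room temperature; fluorescence was read at 490 nm excitation/520 nm emission.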

[2] = Microsomal stability (rat); type: in vitro ADME; details: rat microsomes
Solubility pH 7.4 = type: physicochemical; details: aqueous buffer
PAMPA permeability = type: in vitro ADME
[3] = Table 2, P. falciparum 3D7 asexual stage, 72 h
[4] = Table 2, read-out: Microsomal Stability (rat) T1/2
[5] = Table 3, P. falciparum 3D7 asexual stage, 72 h
[6] = Table 3, read-out: Microsomal Stability (rat) T1/2
[7] = Table 1, P. falciparum 3D7 asexual stage, 72 h
[8] = Table 1, read-out: Microsomal Stability (rat) T1/2

| SMILES | EC50 [1, 5] [nM] | half-life [2, 6] [min] | solubility (Solubility pH 7.4; Table 3) [µg/mL] | Papp (PAMPA permeability; Table 3) [×10⁻⁶ cm/s] | EC50 [1, 7] [nM] | solubility (Solubility pH 7.4; Table 1) [µg/mL] | half-life [2, 8] [min] | also measured |
| --- | --- | --- | --- | --- | --- | --- | --- | --- |
| CN(C)CCN1CCN(C(=O)c2ccc(-n3/c(=N\C#N)ccc4cnc5ccc(-c6ccc(Cl)cc6)cc5c43)cc2)CC1 |  |  |  |  |  |  |  | EC50 [1, 3]: 45.4 nM; half-life [2, 4]: > 30 min; solubility (Solubility pH 7.4; Table 2): 3.2 µg/mL (≈ 5.42 µM); Papp (PAMPA permeability; Table 2): 8.8 ×10⁻⁶ cm/s |
| N=c1ccc2cnc3ccc(-c4ccc(Cl)cc4)cc3c2n1-c1cccc(Cl)c1 |  |  |  |  |  |  |  | EC50 [1, 3]: 178 nM; half-life [2, 4]: > 30 min; solubility (Solubility pH 7.4; Table 2): 20.7 µg/mL (≈ 49.7 µM); Papp (PAMPA permeability; Table 2): 1240 ×10⁻⁶ cm/s |
| CCC(=O)/N=c1/ccc2cnc3ccc(-c4ccc(Cl)cc4)cc3c2n1-c1ccc(C(=O)NC2CC2)cc1 |  |  |  |  |  |  |  | EC50 [1, 3]: 47.5 nM; half-life [2, 4]: 4.8 min; solubility (Solubility pH 7.4; Table 2): < 1 µg/mL; Papp (PAMPA permeability; Table 2): 445 ×10⁻⁶ cm/s |
| C/N=c1\ccc2cnc3ccc(-c4ccc(Cl)cc4)cc3c2n1-c1ccc(C(=O)NC2CC2)cc1 |  |  |  |  |  |  |  | EC50 [1, 3]: 1210 nM; half-life [2, 4]: 17.4 min; solubility (Solubility pH 7.4; Table 2): < 1 µg/mL; Papp (PAMPA permeability; Table 2): 130 ×10⁻⁶ cm/s |
| N=c1ccc2cnc3ccc(-c4ccc(N)nc4)cc3c2n1-c1cccc(C(F)(F)F)c1 |  |  |  |  |  |  |  | EC50 [1, 3]: 21.8 nM; half-life [2, 4]: > 30 min; solubility (Solubility pH 7.4; Table 2): > 64 µg/mL; Papp (PAMPA permeability; Table 2): 228 ×10⁻⁶ cm/s |
| Cn1c(=N)n(-c2cncnc2)c2c3cc(-c4ccc(F)cc4)ccc3ncc21 | 194 | > 30 | 2 (≈ 5.4 µM) | 26.2 |  |  |  |  |
| Cn1c(=N)n(-c2cncnc2)c2c3cc(-c4ccc(N)nc4)ccc3ncc21 | 143 | > 30 | 33.9 (≈ 92 µM) | 12.9 |  |  |  |  |
| Cc1ccc(-c2ccc3ncc4c(c3c2)n(-c2cncnc2)c(=N)n4C)cc1 | 230 | > 30 | 18.5 (≈ 50.5 µM) | 32.3 |  |  |  |  |
| Cn1c(=N)n(-c2cncnc2)c2c3cc(-c4cccc(F)c4)ccc3ncc21 |  | > 30 | 24.9 (≈ 67.2 µM) | 60.6 |  |  |  | EC50 ([1]; 3D7, 72 h): 169 nM |
| Cc1ncncc1-n1c(=N)n(C)c2cnc3ccc(-c4ccc(Cl)cc4)cc3c21 | 721 | > 30 | 24.7 (≈ 61.6 µM) | 1290 |  |  |  |  |
| Cc1ncncc1-n1c(=N)n(C)c2cnc3ccc(-c4ccc(F)cc4)cc3c21 | 538 | > 30 | 6.2 (≈ 16.1 µM) | 1180 |  |  |  |  |
| Cc1ccc(-c2ccc3ncc4c(c3c2)n(-c2cncnc2C)c(=N)n4C)cc1 | 1150 | > 30 | > 38 | 1240 |  |  |  |  |
| CC(=O)N1CCN(c2ncc(-n3c(=N)n(C)c4cnc5ccc(-c6ccc(Cl)cc6)cc5c43)cn2)CC1 | 391 | > 30 | 22.9 (≈ 44.6 µM) | 292 |  |  |  |  |
| COc1ccc(-c2ccc3ncc4c(c3c2)n(-c2cncnc2)c(=N)n4C)cc1OC | 17 | > 30 | > 61 | 510 |  |  |  |  |
| Cn1c(=N)n(-c2cncnc2)c2c3cc(-c4ccc(C(F)(F)F)nc4)ccc3ncc21 | 560 | > 30 | 31 (≈ 73.6 µM) | 541 |  |  |  |  |
| COc1ccc(-c2ccc3ncc4c(c3c2)n(-c2nccnc2C)c(=N)n4C)cc1OC | 58 |  | > 63 | 1240 |  |  |  |  |
| Cn1c(=N)n(-c2ccccc2O)c2c3cc(-c4ccc(Cl)cc4)ccc3ncc21 [Compound 83, 2-(8-(4-chlorophenyl)-2-imino-3-methyl-2,3-dihydro-1H-imidazo[4,5-c]quinolin-1-yl)phenol] |  |  |  |  | 593 | < 1 |  | Papp (PAMPA permeability; Table 1): 859 ×10⁻⁶ cm/s |
| Cc1ccc(C(N)=O)cc1-n1c(=N)n(C)c2cnc3ccc(-c4ccc(Cl)cc4)cc3c21 [Compound 92, 3-(8-(4-chlorophenyl)-2-imino-3-methyl-2,3-dihydro-1H-imidazo[4,5-c]quinolin-1-yl)-4-methylbenzamide] |  |  |  |  |  | > 44 | > 30 | Papp (PAMPA permeability; Table 1): 2 ×10⁻⁶ cm/s |
| CCC(=O)N1CCC(n2c(=N)n(C)c3cnc4ccc(-c5ccc(Cl)cc5)cc4c32)CC1 [Compound 104, 1-(4-(8-(4-chlorophenyl)-2-imino-3-methyl-2,3-dihydro-1H-imidazo[4,5-c]quinolin-1-yl)piperidin-1-yl)propan-1-one] |  |  |  |  | 411 | > 44 | > 30 |  |
| Cc1cc(NCCN(C)C)c(C#N)cc1-n1c(=N)n(C)c2cnc3ccc(-c4ccc(Cl)cc4)cc3c21 [Compound 113, 5-(8-(4-chlorophenyl)-2-imino-3-methyl-2,3-dihydro-1H-imidazo[4,5-c]quinolin-1-yl)-2-((2-(dimethylamino)ethyl)amino)-4-methylbenzonitrile] |  |  |  |  | 546 | > 50 | > 30 |  |
| Cc1ccc(S(C)(=O)=O)cc1-n1c(=N)n(C)c2cnc3ccc(-c4ccc(Cl)cc4)cc3c21 [Compound 122, 8-(4-chlorophenyl)-3-methyl-1-(2-methyl-5-(methylsulfonyl)phenyl)-1,3-dihydro-2H-imidazo[4,5-c]quinolin-2-imine] |  |  |  |  | 1610 | > 47 | > 30 |  |
| Cc1ccc(C#N)cc1-n1c(=N)n(C)c2cnc3ccc(C#Cc4ccccc4)cc3c21 [Compound 154, 3-(2-imino-3-methyl-8-(phenylethynyl)-2,3-dihydro-H-imidazo[4,5-c]quinolin-1-yl)-4-methylbenzonitrile] |  |  |  |  | 1750 | 1.4 (≈ 3.39 µM) | > 30 |  |

The next lines start with results.

| EC50 [1, 5] [nM] | half-life [2, 6] [min] | solubility (Solubility pH 7.4; Table 3) [µg/mL] | Papp (PAMPA permeability; Table 3) [×10⁻⁶ cm/s] | EC50 [1, 7] [nM] | solubility (Solubility pH 7.4; Table 1) [µg/mL] | half-life [2, 8] [min] | SMILES | also measured |
| --- | --- | --- | --- | --- | --- | --- | --- | --- |
| 1240 | > 30 | > 38 | 1100 |  |  |  | Cc1ncncc1-n1c(=N)n(C)c2cnc3ccc(-c4cccc(F)c4)cc3c21 |  |
|  |  |  |  | 55.2 | < 1 | > 30 | Cc1cc(N2CCC(O)CC2)c(C#N)cc1-n1c(=N)n(C)c2cnc3ccc(-c4ccc(Cl)cc4)cc3c21 [Compound 114, 5-(8-(4-chlorophenyl)-2-imino-3-methyl-2,3-dihydro-1H-imidazo[4,5-c]quinolin-1-yl)-2-(4-hydroxypiperidin-1-yl)-4-methylbenzonitrile] |  |
|  |  |  |  | 125 | > 55 | > 30 | Cc1cc(N2CCN(CCO)CC2)c(C#N)cc1-n1c(=N)n(C)c2cnc3ccc(-c4ccc(Cl)cc4)cc3c21 [Compound 115, 5-(8-(4-chlorophenyl)-2-imino-3-methyl-2,3-dihydro-1H-imidazo[4,5-c]quinolin-1-yl)-2-(4-(2-hydroxyethyl)piperazin-1-yl)-4-methylbenzonitrile] |  |
|  |  |  |  | 373 | < 1 | > 30 | Cc1cc(N2CC(C)OC(C)C2)c(C#N)cc1-n1c(=N)n(C)c2cnc3ccc(-c4ccc(Cl)cc4)cc3c21 (stereo not shown) [Compound 117, 5-(8-(4-chlorophenyl)-2-imino-3-methyl-2,3-dihydro-1H-imidazo[4,5-c]quinolin-1-yl)-2-(2,6-dimethylmorpholino)-4-methylbenzonitrile] |  |
|  |  |  |  | 135 | < 1 | > 30 | Cc1cc(N2CCN(S(C)(=O)=O)CC2)c(C#N)cc1-n1c(=N)n(C)c2cnc3ccc(-c4ccc(Cl)cc4)cc3c21 [Compound 118, 5-(8-(4-chlorophenyl)-2-imino-3-methyl-2,3-dihydro-1H-imidazo[4,5-c]quinolin-1-yl)-4-methyl-2-(4-(methylsulfonyl)piperazin-1-yl)benzonitrile] |  |
|  |  |  |  | 88.6 | < 1 | > 30 | Cc1cc(NS(C)(=O)=O)c(C#N)cc1-n1c(=N)n(C)c2cnc3ccc(-c4ccc(Cl)cc4)cc3c21 [Compound 123, N-(4-(8-(4-chlorophenyl)-2-imino-3-methyl-2,3-dihydro-1H-imidazo[4,5-c]quinolin-1-yl)-2-cyano-5-methylphenyl)methanesulfonamide] |  |
|  |  |  |  | 217 | 1.9 (≈ 3.64 µM) | > 30 | Cc1cc(N2CCNC(C)C2)c(C#N)cc1-n1c(=N)n(C)c2cnc3ccc(-c4ccc(Cl)cc4)cc3c21 (stereo not shown) [Compound 124, 5-(8-(4-chlorophenyl)-2-imino-3-methyl-2,3-dihydro-1H-imidazo[4,5-c]quinolin-1-yl)-4-methyl-2-(3-methylpiperazin-1-yl)benzonitrile] |  |
|  |  |  |  | 14.5 | 2.2 (≈ 3.99 µM) | > 30 | Cc1cc(N2CCN(C(N)=O)CC2)c(C#N)cc1-n1c(=N)n(C)c2cnc3ccc(-c4ccc(Cl)cc4)cc3c21 [Compound 126, 4-(4-(8-(4-chlorophenyl)-2-imino-3-methyl-2,3-dihydro-1H-imidazo[4,5-c]quinolin-1-yl)-2-cyano-5-methylphenyl)piperazine-1-carboxamide] |  |
|  |  |  |  | 225 | > 49 | > 30 | Cc1nc(N2CCOCC2)c(C#N)cc1-n1c(=N)n(C)c2cnc3ccc(-c4cccc(F)c4)cc3c21 [Compound 142, 5-(8-(3-fluorophenyl)-2-imino-3-methyl-2,3-dihydro-1H-imidazo[4,5-c]quinolin-1-yl)-6-methyl-2-morpholinonicotinonitrile] |  |
|  |  |  |  | 159 | > 50 | > 30 | Cc1cc(N2CCN(C)CC2)c(C#N)cc1-n1c(=N)n(C)c2cnc3ccc(-c4cccc(F)c4)cc3c21 [Compound 144, 5-(8-(3-fluorophenyl)-2-imino-3-methyl-2,3-dihydro-1H-imidazo[4,5-c]quinolin-1-yl)-4-methyl-2-(4-methylpiperazin-1-yl)benzonitrile] |  |
|  |  |  |  | 62.7 | 14.5 (≈ 25.7 µM) | 21.2 | COC(=O)/N=c1\n(C)c2cnc3ccc(-c4cccc(F)c4)cc3c2n1-c1cc(C#N)c(N2CCN(C)CC2)cc1C [Compound 146, Methyl (E)-(1-(5-cyano-2-methyl-4-(4-methylpiperazin-1-yl)phenyl)-8-(3-fluorophenyl)-3-methyl-1,3-dihydro-2H-imidazo[4,5-c]quinolin-2-ylidene)carbamate] |  |
